Drawing on patent US3974140A, “Ureidoacetamido-penicillins” (Bayer Aktiengesellschaft, priority 1970, dated 1976), this text covers MIC for eight compounds.

What all share (assay): MIC, liquid medium test tube series dilution test
One assay deals with E. coli 183/58. The format is cell-based. The following applies: E. coli 183/58, 24 hours, 37°C. In short, it runs like this:
(§1)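 Penicillins were serially diluted in test tubes of complete liquid medium, inoculated, incubated 24 hours at 37°C, and inspected; the non-turbid tube of the series marked the minimum inhibitory concentration (units/ml).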

Another assay relates to E. coli A 261. Format: cell-based. The following applies: E. coli A 261, 24 hours, 37°C. In short, it runs like this:
as §1

In a further assay the test system is E. coli C 165. Format: cell-based. The following applies: E. coli C 165, 24 hours, 37°C. In short, it runs like this: as §1
For the next assay, the system named is E. coli 14. The format is cell-based. Conditions: E. coli 14, 24 hours, 37°C. The essentials: as §1
In another assay the test system is Klebsiella 63. The format is cell-based. The following applies: Klebsiella 63, 24 hours, 37°C. The essentials:
as §1

A further assay has as its system Klebsiella K 10. Format: cell-based. Conditions: Klebsiella K 10, 24 hours, 37°C. In short, it runs like this: as §1
Assay [1] concerns Streptoc. faec. ATCC 9790. The format is cell-based. Conditions: Strep. faec. (Enterococcus) ATCC 9790, 24 hours, 37°C. The essentials: as §1
A further assay has as its system Proteus vulg. 3400. The format is cell-based, Proteus vulgaris. Conditions: Proteus vulg. 3400, 24 hours, 37°C. The essentials:
as §1

Another assay deals with Proteus vulg. 1017. The format is cell-based, Proteus vulgaris. The following applies: Proteus vulg. 1017, 24 hours, 37°C. In short, it runs like this: as §1
The next assay relates to Staph. aureus 1777 E. Format: cell-based, Staphylococcus aureus. Conditions: 24 hours, 37°C. The essentials: as §1
The subject of another assay is Staph. aureus 133. The format is cell-based, Staphylococcus aureus. Conditions: Staph. aureus 133, 24 hours, 37°C. In short, it runs like this:
as §1

The next assay has as its system Psdm. aerug. Walter. The format is cell-based, Pseudomonas aerug. The following applies: 24 hours, 37°C. In short, it runs like this:
as §1

The next assay concerns Psdm. aerug. Bonn. The format is cell-based, Pseudomonas aerug. The following applies: 24 hours, 37°C. The essentials: as §1

As for `CCN(CC)C(=O)N(C)C(=O)N[C@@H](C(=O)N[C@@H]1C(=O)N2[C@@H]1SC(C)(C)[C@@H]2C(=O)O)c1ccccc1` [Example 126, Sodium D(-)-α-(3-diethylaminocarbonyl-3-methyl-ureido)-benzylpenicillin], the MIC against E. coli 183/58 is recorded as 50 units/ml; in the assay with E. coli A 261, > 400 units/ml; in the assay on E. coli C 165, 50 units/ml; against E. coli 14, 12.5 units/ml; in the assay with Klebsiella 63, 200 units/ml; in the assay on Klebsiella K 10 it was 100 units/ml. Moreover, the MIC came to 200 units/ml in assay [1]; 100 units/ml in the assay on Proteus vulg. 3400; 100 units/ml in the assay on Proteus vulg. 1017; 100 units/ml with Staph. aureus 1777 E; 1.56 units/ml in the assay on Staph. aureus 133; 200 units/ml against Psdm. aerug. Walter. In the assay on Psdm. aerug. Bonn, this compound returned an MIC of 100 units/ml.

Take `CN(C(=O)NC(C(=O)N[C@@H]1C(=O)N2[C@@H]1SC(C)(C)[C@@H]2C(=O)O)c1cccs1)C(=O)c1ccccc1Cl` (stereo partly drawn) [Example 135, Sodium α-(3-o-chlorobenzoyl-3-methyl-ureido)-α-thienyl(2)-methylpenicillin]: the MIC against E. coli 183/58 is 25 units/ml; against E. coli A 261, 400 units/ml; against E. coli C 165, 50 units/ml; in the assay on E. coli 14, 12.5 units/ml; in the assay with Klebsiella 63, 400 units/ml; against Klebsiella K 10, 100 units/ml. Further, the MIC in [1] is 200 units/ml; against Proteus vulg. 3400, 100 units/ml; in the assay on Proteus vulg. 1017 it was 25 units/ml; against Staph. aureus 1777 E, 100 units/ml; in the assay on Staph. aureus 133, < 0.8 units/ml; in the assay with Psdm. aerug. Walter it was 100 units/ml. Further, the MIC against Psdm. aerug. Bonn is recorded as 400 units/ml.

`CNC(=O)N(C)C(=O)N[C@@H](C(=O)N[C@@H]1C(=O)N2[C@@H]1SC(C)(C)[C@@H]2C(=O)O)c1ccccc1` [Example 110, Sodium D(-)-α-(3-methylaminocarbonyl-3-methyl-ureido)-benzylpenicillin]: the MIC in the assay with E. coli 183/58 was 4-20 units/ml; against E. coli A 261, 100-500 units/ml; against E. coli C 165 it was 4-20 units/ml; against E. coli 14, 0.8-4 units/ml; against Klebsiella 63, 4-20 units/ml; in the assay with Klebsiella K 10, 4-20 units/ml. The MIC in [1] was 4-20 units/ml; against Proteus vulg. 3400 it was 4-20 units/ml; with Proteus vulg. 1017, 4-20 units/ml; against Staph. aureus 1777 E, 20-100 units/ml; against Staph. aureus 133, 0.8 units/ml; with Psdm. aerug. Walter, 20-100 units/ml. Moreover, the MIC in the assay with Psdm. aerug. Bonn is listed as 20-100 units/ml.

On to `CN(C(=O)N[C@@H](C(=O)N[C@@H]1C(=O)N2[C@@H]1SC(C)(C)[C@@H]2C(=O)O)c1ccccc1)C(=O)c1ccccc1Br` [Example 128, Sodium D(-)-α-(3-[2-bromobenzoyl]-3-methyl-ureido)-benzyl penicillin], for which the MIC with E. coli 183/58 was < 0.78 units/ml; in the assay with E. coli A 261 it was 50 units/ml; against E. coli C 165 it was 1.56 units/ml; in the assay on E. coli 14, 0.78 units/ml; against Klebsiella 63, 6.25 units/ml; against Klebsiella K 10 it was 6.25 units/ml. In addition, the MIC is reported as 50 units/ml in [1]; 6.25 units/ml with Proteus vulg. 3400; 1.56 units/ml against Proteus vulg. 1017; 12.5 units/ml with Staph. aureus 1777 E; < 0.78 units/ml against Staph. aureus 133; 12.5 units/ml in the assay with Psdm. aerug. Walter. In the assay with Psdm. aerug. Bonn, this compound returned an MIC of 6.25 units/ml.

`CCOC(=O)N(C)C(=O)N[C@@H](C(=O)N[C@@H]1C(=O)N2[C@@H]1SC(C)(C)[C@@H]2C(=O)O)c1ccccc1` [Example 61, Sodium D(-)-α-(3-ethoxycarbonyl-3-methyl-ureido)-benzylpenicillin]: the MIC against E. coli 183/58 is recorded as 6.25 units/ml; against E. coli A 261, > 400 units/ml; against E. coli C 165, 6.25 units/ml; in the assay on E. coli 14, 3.12 units/ml; against Klebsiella 63 it was 50 units/ml; in the assay with Klebsiella K 10 it was 100 units/ml. Also, the MIC in assay [1] is given as 50 units/ml; against Proteus vulg. 3400 it was 25 units/ml; with Proteus vulg. 1017, 25 units/ml; in the assay with Staph. aureus 1777 E it was 200 units/ml; against Staph. aureus 133, < 0.78 units/ml; in the assay on Psdm. aerug. Walter it was 25 units/ml. Moreover, the MIC against Psdm. aerug. Bonn stood at 12.5 units/ml.

For the compound `CC1(C)S[C@@H]2[C@H](NC(=O)[C@H](NC(=O)N3CCNC3=O)c3ccccc3)C(=O)N2[C@H]1C(=O)O` [Example 144 A, D(-)-α-(Imidazolidin-2-on-1-yl-carbonylamino)-benzyl-penicillin], the MIC in the assay on E. coli 183/58 (listed as 144) is reported as 50 units/ml; against E. coli A 261 (listed as 144) it was 400 units/ml; against E. coli C 165 (listed as 144), 6.25 units/ml; with E. coli 14 (listed as 144) it was 1.56 units/ml; against Klebsiella 63 (listed as 144), 50 units/ml; against Klebsiella K 10 it was 50 units/ml. Further, the MIC is reported as 25 units/ml in assay [1] (listed as 144); 25 units/ml in the assay with Proteus vulg. 3400 (listed as 144); 12 units/ml in the assay with Proteus vulg. 1017 (listed as 144); 200 units/ml against Staph. aureus 1777 E (listed as 144); < 0.8 units/ml against Staph. aureus 133 (listed as 144); 12.5 units/ml in the assay with Psdm. aerug. Walter (listed as 144). In the assay on Psdm. aerug. Bonn (listed as 144), this compound showed an MIC of 6.25 units/ml.

Consider `CN(C(=O)N[C@@H](C(=O)N[C@@H]1C(=O)N2[C@@H]1SC(C)(C)[C@@H]2C(=O)O)c1ccccc1)C(=O)N1CCOCC1` [Example 125, Sodium D(-)-α-(3-[4-morpholinyl]-carbonyl-3-methyl-ureido)-benzylpenicillin], for which the MIC in the assay with E. coli 183/58 is 50 units/ml; in the assay on E. coli A 261 it was > 400 units/ml; in the assay on E. coli C 165, 25 units/ml; against E. coli 14, 3.12 units/ml; in the assay with Klebsiella 63 it was 100 units/ml; against Klebsiella K 10 it was 200 units/ml. Moreover, the MIC in assay [1] is recorded as 200 units/ml; in the assay with Proteus vulg. 3400, 100 units/ml; against Proteus vulg. 1017 it was 50 units/ml; with Staph. aureus 1777 E, 50 units/ml; against Staph. aureus 133 it was 3.12 units/ml; in the assay on Psdm. aerug. Walter, 100 units/ml. Also, in the assay on Psdm. aerug. Bonn, the MIC turned out to be 50 units/ml.

With `CN(C(=O)N[C@@H](C(=O)N[C@@H]1C(=O)N2[C@@H]1SC(C)(C)[C@@H]2C(=O)O)c1ccccc1)C(=O)c1ccc(Cl)cc1` [Example 112, Sodium D(-)-α-(3-p-chlorebenzoyl-3-methyl-ureido)-benzylpenicillin], the MIC against E. coli 183/58 was < 0.8 units/ml; in the assay with E. coli A 261, 20-100 units/ml; against E. coli C 165, 0.8-4 units/ml; in the assay on E. coli 14, < 0.8 units/ml; with Klebsiella 63, 4-20 units/ml; in the assay on Klebsiella K 10 it was 4-20 units/ml. Besides, the MIC in assay [1] was 4-20 units/ml; in the assay on Proteus vulg. 3400, 0.8-4 units/ml; in the assay with Proteus vulg. 1017 it was 0.8-4 units/ml; in the assay with Staph. aureus 1777 E, 20-100 units/ml; against Staph. aureus 133 it was 0.8 units/ml; in the assay on Psdm. aerug. Walter, 4-20 units/ml. For the same compound, the MIC against Psdm. aerug. Bonn is recorded as 4- 20 units/ml.
